These results are taken from US10487091B2, “Activators of autophagic flux and phospholipase D and clearance of protein aggregates including tau and treatment of proteinopathies” (THE TRUSTEES OF COLUMBIA UNIVERSITY IN THE CITY OF NEW YORK, priority 2015, dated 2019).

SMILES strings stand for the structures. Like-named read-outs stand apart in the source and are kept apart here. Some results are limits rather than exact numbers.

For one data set, the system named is Tau/aggregate. The data set is described as follows: Tau/aggregate inhibition in HEK 293 cells expressing mKate2-tagged Tau. The class given is cell-based, Human. The conditions noted are these: Homo sapiens, HEK293. As for the experimental part:
(§1) 1) HEK cells with tet-regulated expression of mKate2 tagged Tau were grown in DMEM medium (Dulbecco's Modified Eagle's Medium) containing 0.5 μg/mL doxycycline (Dox)(MP-Bio#198955), after 3-5 days Dox was removed by washing the cells twice with sterile phosphate buffered saline (PBS; Invitrogen#14190-144), cells were left in DMEM without Dox for 72 hours (to further clear remaining Dox in cells).
(§2) The test compounds (along with CytoID™ dye and Hoechst stain) were added to the cells and incubated for 3 hours. Reference compounds were also used in each plate, Rapamycin was used for autophagy induction and chloroquine was used for lysosomal inhibition. After 3 hours test compound was aspirated off and kept. Cells were then washed and read using a fluorescence plate reader. Hoescht, Cyto-ID™ and mKate2 were measured using 3 distinct wavelengths on the plate reader. The Hoescht measurement allowed normalisation of results across wells. After reading, test compound was re-added and the cells are left for a further 21 hours. At the 24 hour time point cells were once again washed and plates read using the fluorescence plate reader.
(§3) Proteostat™ assay was used to detect aggresomes via measurement of p62. Aggresomes are inclusion bodies that form when the ubiquitin-proteasome machinery is overwhelmed with aggregation-prone proteins. Typically, an aggresome forms in response to some cellular stress, such as hyperthermia, viral infection, or exposure to reactive oxygen species. Aggresomes may provide a cytoprotective function by sequestering the toxic, aggregated proteins and may also facilitate their ultimate elimination from cells by autophagy. Following the final plate read described in the Cyto-ID™ assay described above, Proteostat™ detection reagent was added to every well and the plate was incubated for 15 minutes. Following this incubation, the plate was read by fluorescence plate reader at the specified wavelength. After this plate read, the cells were fixed by incubating with warm paraformaldehyde for 8 minutes. The fixed cells were then read by plate reader as before.
Western blot assays were performed to determine protein changes in Tau and p62. Cells were cultured as above and incubated with test compounds for 24 h. Following test compound incubation, the test compound was aspirated off and cells were washed before harvesting. Cells were spun at a low speed and supernatant was aspirated to leave the cell pellet. The cell pellet was then homogenized in buffer, centrifuged at high speed, and the supernatant aspirated and further separated into total fraction and aggregate fraction allowing quantification of soluble and insoluble proteins. Western blots were run on the samples, gels transferred to nitrocellulose and incubated with antibodies for Tau and p62. After incubation with secondary antibodies for detection, the bands of protein were quantified by chemiluminescence.

The next data set relates to Autophagy Markers. The experiment in a line: Autophagy markers (Cyto-ID assay) in HEK 293 cells. Format: cell-based, Human. As for the experimental part: The dye used in the kit prevents its accumulation within lysosomes, but enables labelling of vacuoles associated with the autophagy pathway using the LC3 biomarker.
as §2
2) Test samples were prepared in warm FluoroBrite™ DMEM and with 10% FBS and 1% NEAA (FB-DMEM). Rapamycin 200 nM (Enzo #BML-A275-0025) was used for autophagy induction and […] chloroquine was used for lysosomal inhibition (bafilomycin or similar compounds were not used as they give a false negative result in the assay). Dimethyl Sulfoxide 1:1000 (DMSO; Fisher #BP231-100) was used as control. Autophagosome marker Cyto ID™ (1:500; Enzo #ENZ-51031-k200) and Hoechst (1:200) was added to these test sample preparations before treating the cells.
7) At 24 hours post reaction all medium was aspirated and the plate was washed 3 times with warm FB-DMEM, and read again for Hoescht (Ex=355 nm Em=446 nm), CytoID™ (Ex=463 nm; Em=534 nm) and mKate2 (Ex=575 nm; Em=630 nm) in 80 μl of FB-DMEM.

A further data set deals with phospholipase D (PLD). The experiment in a line: PLD assay (conversion of phospholipids to phosphatidylethanols in presence of ethanol, LC/MS). The class given is cell-based, mice. The conditions noted are these: PLD activation, fold; 24 hours incubation. As for the experimental part: Cells were incubated with test compound for 24 hours. 25 minutes prior to harvest at 24 hours, 3% ethanol solution was added to the wells to catalyze cleavage of the phospholipid. Cells were then placed on ice, washed and harvested. The harvested cells were centrifuged and the supernatant was aspirated and the pellet kept. The pellet was resuspended and chloroform/methanol lipid extraction was performed. The sample was centrifuged and the organic layer was separated, dried under nitrogen and stored at −80° C. On the day of analysis, samples were resuspended and analysed by LC/MS. All phosphatidylethanol species (PEtOH32-40:0-6:16/18:0/1) were combined together and represented as total lipid content (all lipid species).
(§4) The assay was run in e18 primary cortical neurons from PLD1 or PLD2 KO mice cultured for 14 days. Alternatively, the assay can be run in the cells described above in the presence of excess PLD1 or PLD2 inhibitor to preclude that particular action from contributing to the effect of the drug.
(§5) 4) On the day of experiment, cells were washed in warmed HBSS twice before media containing test compound (n=3 per compound per dose), inhibitor (355 nM ML298 or 50 nM VU0150669), or vehicle are added to the wells (1.5 mL in 6 well, 600 μL in 12 well). Plates were incubated for 24 hours at 37° C. with 5% CO2.
5) 25 minutes prior to harvest, a 165 μL of a 3% ethanol solution was added to each well.
PLD activation converts phospholipids to phosphatidylethanols in the presence of ethanol. […] FIPI is a non-competitive inhibitor of PLD activity and was used as a negative control.

The nature of data set [1]: Cytotoxicity LC50 (XTT assay for cell viability).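 Further: cells carry doxycycline-repressible Tau, induced by withdrawing doxycycline for 72 h before compound exposure.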 The class given is cell-based. The conditions noted are these: human, transfected HEK 293 cells that express mKate2-tagged Tau. A general note: Tetrazolium assays rely on reduction of a dye to a coloured formazan, in cell work by metabolically active cells.
Description: The cells were grown in the presence of the antibiotic doxycycline. When the antibiotic is removed the cells produce Tau (which can be quantified), thus allowing the test compounds' effects on Tau's production to be compared. Doxycycline was removed for 72 hours prior to exposure to the test compounds to promote sufficient Tau production. Cells were subsequently plated into plates for each of the assays described below.
Data set [2] can be described thus: Photodiode array (PDA) detection of compound in mouse brain. To be noted: FIG. 1. The class given is in vivo. The source says: FIG. 1 is a graph showing a photodiode array (PDA) spectrum of WHYKD8 in mouse brain.
A photodiode array (PDA) was used to detect WHYKD8 in mouse brain (FIG. 1).

A further data set relates to aggregates (Proteostat). The experiment in a line: Proteostat protein aggregation assay EC50. The class given is cell-based. The conditions noted are these: Homo sapiens; 50% reduction of Proteostat levels (fluorescent marker of aggregates).
Description: as §3
8) Detection solution was prepared by adding 10 μl Proteostat™ detection reagent (ENZ-51023-KP002) and 200 μL of 10× assay buffer into 1790 μL water and mixing well.
9) 20 μL was added per well (each well had 80 μl of Fluorobrite™ media with no FBS) and incubated in the dark for 15 min at room temperature.
10) Fluorescence for Proteostat™ (Ex=550 nm; Em=600 nm) was then read.

In another data set the test system is mKate2 tagged Tau. The data set is described as follows: Tau-mKate2 fluorescence EC50. Format: cell-based. The conditions noted are these: Homo sapiens; 50% reduction of mKate2 fluorescence (tau tag). As for the experimental part: as §1
as §2, with “After 3 hours test compound was aspirated off and kept.” left out, “The Hoescht measurement allowed normalisation of results across wells.” left out
5) Treatment plate was then washed quickly 3 times with warm FB-DMEM (100 μL/well). […] At this point, the plate was ready for reading. See details in Reading Plate section. Hoescht was read at Excitation wavelength (Ex)=355 nm & Emission wavelength (Em)=446 nm. mKate2 was read at Ex=575 nm & Em=630 nm. Cyto-ID™ was read at Ex=463 nm & Em=534 nm. […]

The next data set has as its target T1, PLD1 (Homo sapiens, UniProt Q13393).
T1 construct: endogenous in cells; host or cells: HEK 293 (Jump-In) cells with tet-regulated mKate2-Tau
T1 sequence (Q13393 1-1074): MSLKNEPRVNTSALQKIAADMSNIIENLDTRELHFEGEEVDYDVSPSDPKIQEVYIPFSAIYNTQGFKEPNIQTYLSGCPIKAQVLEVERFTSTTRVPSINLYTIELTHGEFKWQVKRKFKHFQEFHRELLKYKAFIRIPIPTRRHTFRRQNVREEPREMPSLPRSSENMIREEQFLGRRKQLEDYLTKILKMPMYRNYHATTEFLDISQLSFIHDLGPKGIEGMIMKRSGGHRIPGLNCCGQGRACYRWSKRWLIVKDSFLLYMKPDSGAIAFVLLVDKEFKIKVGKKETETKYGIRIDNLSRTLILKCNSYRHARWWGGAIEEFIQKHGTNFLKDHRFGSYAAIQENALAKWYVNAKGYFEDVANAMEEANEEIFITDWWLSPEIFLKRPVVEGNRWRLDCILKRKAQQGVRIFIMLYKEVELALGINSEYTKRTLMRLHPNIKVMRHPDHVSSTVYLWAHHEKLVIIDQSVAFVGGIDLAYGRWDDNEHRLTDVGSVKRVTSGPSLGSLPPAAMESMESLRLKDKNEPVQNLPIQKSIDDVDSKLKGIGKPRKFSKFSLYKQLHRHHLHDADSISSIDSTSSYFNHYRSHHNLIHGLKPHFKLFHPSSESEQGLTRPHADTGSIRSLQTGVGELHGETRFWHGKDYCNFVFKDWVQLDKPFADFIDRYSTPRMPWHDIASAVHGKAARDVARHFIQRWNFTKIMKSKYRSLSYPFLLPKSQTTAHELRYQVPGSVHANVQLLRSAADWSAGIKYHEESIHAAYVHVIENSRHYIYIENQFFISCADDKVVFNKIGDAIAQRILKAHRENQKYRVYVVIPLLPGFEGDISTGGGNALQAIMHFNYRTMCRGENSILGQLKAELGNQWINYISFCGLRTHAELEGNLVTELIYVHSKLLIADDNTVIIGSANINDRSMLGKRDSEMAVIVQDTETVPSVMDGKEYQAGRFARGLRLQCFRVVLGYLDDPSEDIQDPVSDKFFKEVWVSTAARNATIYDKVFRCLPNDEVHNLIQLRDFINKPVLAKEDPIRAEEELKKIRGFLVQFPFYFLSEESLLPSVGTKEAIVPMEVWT
The experiment in a line: PLD1 activity: Proteostat/mKate2 with PLD2 inhibitor ML298. The class given is cell-based. The conditions noted are these: with ML298, PLD2 inhibitor (355 nM). As for the experimental part:
as §4, §5

A further data set concerns the target T2, PLD2 (Homo sapiens, UniProt O14939).
T2 construct: endogenous in cells; host or cells: HEK 293 (Jump-In) cells with tet-regulated mKate2-Tau
The experiment in a line: PLD2 activity: Proteostat/mKate2 with PLD1 inhibitor VU0150669. The class given is cell-based. To be noted: for EC50: with PLD1 inhibitor VU0150669, 50 nM. As for the experimental part: as §4, §5

T2 sequence (O14939 whole entry): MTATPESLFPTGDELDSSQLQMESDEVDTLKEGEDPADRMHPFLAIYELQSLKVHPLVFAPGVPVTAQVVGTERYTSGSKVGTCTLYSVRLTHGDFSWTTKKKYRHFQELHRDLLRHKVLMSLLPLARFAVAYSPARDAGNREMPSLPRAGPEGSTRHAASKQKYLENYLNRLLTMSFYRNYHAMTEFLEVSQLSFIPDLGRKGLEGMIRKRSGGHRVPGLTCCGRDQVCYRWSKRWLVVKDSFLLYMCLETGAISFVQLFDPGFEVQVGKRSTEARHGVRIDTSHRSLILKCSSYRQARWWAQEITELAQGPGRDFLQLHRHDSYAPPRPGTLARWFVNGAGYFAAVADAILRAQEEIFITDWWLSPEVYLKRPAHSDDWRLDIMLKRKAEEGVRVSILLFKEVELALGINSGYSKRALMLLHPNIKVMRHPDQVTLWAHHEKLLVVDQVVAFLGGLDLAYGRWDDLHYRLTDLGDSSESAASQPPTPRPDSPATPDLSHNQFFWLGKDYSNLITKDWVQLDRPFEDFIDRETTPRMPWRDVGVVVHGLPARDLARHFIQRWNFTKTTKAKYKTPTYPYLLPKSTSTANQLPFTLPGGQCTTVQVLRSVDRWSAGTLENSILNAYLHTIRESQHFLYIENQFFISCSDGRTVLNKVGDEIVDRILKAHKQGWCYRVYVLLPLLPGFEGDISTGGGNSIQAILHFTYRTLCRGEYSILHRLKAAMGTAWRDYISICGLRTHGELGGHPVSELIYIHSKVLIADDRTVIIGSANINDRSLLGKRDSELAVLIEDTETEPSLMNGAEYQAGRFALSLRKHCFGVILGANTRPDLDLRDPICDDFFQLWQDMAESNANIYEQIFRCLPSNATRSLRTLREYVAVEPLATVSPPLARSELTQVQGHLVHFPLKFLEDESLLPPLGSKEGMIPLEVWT

`Oc1ccc(CCNc2ncnc3ccc(Cl)cc23)cc1` [WHYKD8]: in the data set with Tau/aggregate, the inhibition (as a rule, the share of the control response that was lost under treatment) at 1 µM amounted to 30%. The “% Increase Autophagy Markers” value with Autophagy Markers came out at 25%. The PLD in the data set with phospholipase D (PLD) is recorded as 2.8X. The CC50 in data set [1] (read-out: Cyto-toxixity LC50) was above 100000 nM. For the same compound, the “detection in mouse brain” value in data set [2] is on record as “readily detected”.
As for `c1cnc2c(SC3CCCC3)ncnc2c1` [WHYKD36], the CC50 in [1] (XTT assay, 200 = upper concentration limit tested, read-out: LC50 (the source's name)) came out at 67000 nM. Also, the EC50 is 383 nM with aggregates (Proteostat); 1040 nM with mKate2 tagged Tau; 394 nM at PLD1 (read-out: Proteostat (nM) using pharmacological inhibitor PLD1); 1330 nM on PLD1 (read-out: mKate2 (nM) using pharmacological inhibitor PLD1); 604 nM at PLD2 (read-out: Proteostat (nM) using pharmacological inhibitor PLD2); 2280 nM at PLD2 (read-out: mKate2 (nM) using pharmacological inhibitor PLD2). For the same compound, on PLD2 (Proteostat readout), the “Proteostat PLD2/PLD1 ratio” value is recorded as 1.5. Besides, the “mKate2 PLD2/PLD1 ratio” value on PLD2 (mKate2 readout) amounted to 1.7.
